Assay results from US9453017B2, “Antiviral therapies with phospholipase D inhibitors” (Vanderbilt University, priority 2011, dated 2016).
Read-outs that look alike come from different tables or passages of the source.

What was measured:
A/Puerto Rico/8/1934 = experiment: Traditional plaque assay in MDCK cells (FIG. 14a); settings: 10 μM, vs DMSO treated control
[1] = system: A549 cells infected with A/Puerto Rico/8/1934; experiment: Viral nucleoprotein (NP) / Rab11 trafficking (FIG. 8g); type: cell-based, human; settings: 5 μM; A/Puerto Rico/8/1934, MOI=5; 16 hr infection
Text: (§1) Samples were fixed in 4% formaldehyde, permeabilized with 0.3% Triton X-100, and then exposed to antisera targeting proteins of interest and corresponding fluorescent secondary antibodies alongside DAPI to visualize nuclei. Focal infections were imaged and processed using a Nikon C1Si and NIS Elements software. Confocal images were captured with a Zeiss LSM 510 NLO Meta and analyzed with Zeiss Zen 2011 software and ImageJ.
(§2) (i) Quantitation of the area of positive Mx1 staining, n=4 for DMSO and n=5 for drug treatments. ANOVA and Dunnett's post test were used to determine significance of changes when PLD inhibitors were used, and a t-test was used when cells were treated with alcohol, * p<0.05, ** p<0.01, ***, p<0.001, **** p<0.0001. Data in (b, d, f, i) is mean±SEM, n=3 fields of at least 15 cells.

[2] = system: PR8 (A/Puerto Rico/8/1934); experiment: Lethal influenza infection in mice, JWJ 13 mg/kg (FIG. 9); type: in vivo, mouse
[3] = Pharmacokinetics after intraperitoneal injection in mice (FIG. 15); type: in vivo; settings: mouse
Procedure: The pharmacokinetic behavior of a representative disclosed PLD inhibitor of the present invention was assessed following intraperitoneal administration in a mouse model. Briefly, mice were administered a single dose of the PLD inhibitor VU0364739 (10 mg/kg) by intraperitoneal injection. Tissue (brain, lung, and liver) and plasma samples were isolated following euthanizing animals (N=2 for each time point) at the indicated time points (see FIG. 15). The samples were flash frozen and stored at −80° C. Analysis was carried out by LC-MS/MS following extraction.

[4] = system: RAB5 and CD63 in A549 cells infected with A/California/04/2009; experiment: Diffuse infection model, RAB5 and CD63 recruitment (FIG. 8c-f); type: cell-based, human
Procedure: (§3) A549 cells were seeded onto chamber slides and allowed to adhere overnight. The cells were washed with PBS, and serum-free medium containing treatment was added to the cells. After one hour of treatment, the medium was removed and replaced with serum-free medium containing treatment and 0.05 MOI influenza virus. The infected cultures were kept at 4° C. for 15 minutes before being incubated at 37° C. At appropriate times, cultures were removed and fixed with […] and processed for microscopy as above. Z stacks were acquired using a Zeiss LSM 510 microscope, and images were analyzed with ImageJ (Java-based software available from NIH). Data was processed as above.
as §1, §2

[5] = system: A/California/04/2009 (H1N1); type: cell-based, influenza virus
influenza virus = type: cell-based; settings: 10 μM compound; compared to vehicle; FIG. 2
[6] = system: A/Brisbane/59/2007 (H1N1); type: cell-based, influenza virus; settings: for infected cells, A/Brisbane/59/2007: 10 μM, vs DMSO vehicle
PR8 influenza A virus = experiment: In vivo mouse model of influenza infection, 30 mg/kg (FIGS. 3, 4); settings: 30 mg/kg intraperitoneal twice daily for 7 days; for survival of infected mice: FIG. 4
Procedure: A mouse model of influenza infection was used to test the in vivo efficacy of representative disclosed compounds. Compounds were administered at 30 mg/kg and the mice were infected with PR8 influenza A virus. Briefly, C57BL/6J mice (female 8- to 10-wk-old; purchased from The Jackson Laboratory and held under pathogen-free conditions at St. Jude Children's Research Hospital) were used in these studies. Mice were anesthetized by i.p. injection with Avertin (2,2,2-tribromethanol; prepared in-house) before intranasal (i.n.) infection with 80% infective dose (EID80) units of the PR8 influenza A virus in PBS. Mice were administered either the indicated PLD inhibitor (30 mg/kg) or vehicle intraperitoneal starting at 24 hr per exposure. Compounds were administered twice daily for 7 days and subjects were measured for changes in body weight (FIG. 3) or survival (FIG. 4) as a function of PLD inhibitor administration. Mice were sacrificed if moribund.

[7] = system: clathrin in A549 cells infected with A/Brisbane/59/07; experiment: Diffuse infection model, clathrin accumulation (FIG. 8a-b); type: cell-based, human
Procedure: as §3, §1, §2

phospholipase D (PLD) = type: cell-based, human; settings: 10 μM; A549 cells infected with California/04/2009 at 1 MOI; 6 hours post-infection; FIG. 6
influenza virus strains = type: cell-based
[8] = 10 μM PLD inhibitor, vs DMSO control
[9] = 50 minutes post-infection, 0.05 MOI, vs DMSO
[10] = 80 minutes post-infection, 0.05 MOI, vs DMSO

Structure (SMILES) | plaque formation (A/Puerto Rico/8/1934) | viral nucleoprotein (NP) trafficking [1] | CD63 accumulation [4, 8] | protection from A/California/04/2009 infection ([5]; 10 μM, […], vs vehicle control) | infection of A549 cells (influenza virus) | protection from A/Brisbane/59/2007 infection [6] | infected cells, A/Brisbane/59/2007 [6] | survival of infected mice (PR8 influenza A virus) | clathrin accumulation [7, 9] | clathrin accumulation [7, 10] | virus infection of A549 cells (influenza virus strains) | also measured
O=C(NCCN1CCC2(CC1)C(=O)NCN2c1cccc(F)c1)c1ccc2ccccc2c1 [No. 1, N-(2-(1-(3-fluorophenyl)-4-oxo-1,3,8-triazaspiro[4.5]decan-8-yl)ethyl)-2-naphthamide] | less plaque formation | trafficking was disrupted | significantly less CD63 | significant protection | blocked infection of A549 cells | still significantly protected | significantly fewer (p<0.001) infected cells | survival improved | accumulated less clathrin | persisted at least until 80 minutes |  | less likely to die ([2]; 13 mg/kg intraperitoneal, 4000 EID50 PR8, Log-Rank p=0.0061, FIG. 9b): about 27%; mice that survived (of cohort) ([2]; 13 mg/kg intraperitoneal, 4000 EID50 PR8, vehicle one out of 42): 12/38; recovery of weight lost ([2]; 13 mg/kg intraperitoneal, 4000 EID50 PR8, vs vehicle): recovered the weight lost more quickly; weight loss ([2]; 13 mg/kg intraperitoneal, 4000 EID50 PR8, vs vehicle, FIG. 9a): lost significantly less weight; virus in lungs (plaque assay) ([2]; 8 hours after infection, p=0.0017, FIG. 9c): significantly less virus; innate immune response ([2]; 8 hours after infection, vs vehicle): more activated innate immune response; accumulation in liver and lung ([3]; in vivo, ip, 10 mg/kg): elevated accumulation in liver and lung compared to plasma; accumulation in brain ([3]; single dose 10 mg/kg intraperitoneal, 15 min to 3 hr post-administration): appeared to be constant; exposure in tissues (brain, lung, liver) and plasma ([3]; single dose 10 mg/kg intraperitoneal, FIG. 15): sustained exposure in the tissues examined and in plasma over a period of at least three hours; protection from A/California/04/2009 infection [5]: protected (p<0.05); formation of PtdBuOH (phospholipase D (PLD)): inhibited
C[C@@H](CN1CCC(n2c(=O)[nH]c3cc(Br)ccc32)CC1)NC(=O)[C@@H]1C[C@@H]1c1ccccc1 [No. 2, (1R,2S)-N-((S)-1-(4-(5-bromo-2-oxo-2,3-dihydro-1H-benzo[d]imidazol-1-yl)piperidin-1-yl)propan-2-yl)-2-phenylcyclopropanecarboxamide] | less plaque formation | trafficking was disrupted | significantly less CD63 |  | blocked infection of A549 cells | still significantly protected | significantly fewer (p<0.001) infected cells | particularly profound | accumulated less clathrin | persisted at least until 80 minutes |  | weight loss associated with virus infection (PR8 influenza A virus; vs vehicle (10% Tween 80), through about day 11 post-infection, FIG. 3): trend of the test compound to protect infected mice against weight loss
O=C(NCCN1CCC(n2c(=O)[nH]c3ccccc32)CC1)c1ccc2ccccc2c1 [No. 3, N-(2-(4-(2-oxo-2,3-dihydro-1H-benzo[d]imidazol-1-yl)piperidin-1-yl)ethyl)-2-naphthamide] |  |  | significantly less CD63 | significant protection | blocked infection of A549 cells | still significantly protected | significantly fewer (p<0.001) infected cells |  | accumulated less clathrin |  |  | 
CCCCO [n-butanol, reference compound] |  |  |  |  |  |  |  |  |  |  | has a significant effect on virus infection of A549 cells | CD63 accumulation ([4]; 0.6% alcohol, vs respective control (tert-butanol)): significantly less CD63; protection from productive infection, A/California/04/2009 [5]: significantly protected from a productive infection; protection from productive infection, A/Brisbane/59/2007 [6]: significantly protected from a productive infection; clathrin accumulation ([7]; 0.6% alcohol, 80 minutes after infection, compared to tert-butanol): significantly less clathrin had accumulated
CC(C)(C)O [tert-butanol] |  |  |  |  |  |  |  |  |  |  | does not have any effect on virus infection of A549 cells | 
